Results taken from patent US20210052566A1, “METHODS FOR TREATING HEPATITIS B VIRUS (HBV) INFECTION” (INSERM (INSTITUT NATIONAL DE LA SANTÉ ET DE LA RECHERCHE …, priority 2018, published 2021).

Assays:
[1] = tested on: HepaRG cells; assay: Cytotoxicity, CellTiter-Glo Luminescent Cell Viability Assay; format: cell-based, Human; details: highest concentration tested 40 microM
Excerpt: FIG. 5. Anti-HBV properties of 1C8 in persistently infected dHepaRG cells: genotype D. Differentiated HepaRG were infected with HBV genotype D at a MOI of 100 vge/cell or HDV genotype 1 at a MOI of 10 vge/cell for 7 days before being treated trice every 2-3 days with indicated molecules at a concentration of 10 microM. A) Total DNA and RNA were extracted from cells and subjected to qPCR and RTqPCR to detect HBV cccDNA, total HBV RNA or pregenomic HBV RNA. B) HBs and HBe secreted antigens in supernatant were quantified by ELISA, whereas HBV DNA contained in virions was quantified by qPCR after viral nucleic acid extraction from supernatant. C) Intracellular HDV RNA was quantified by RTqPCR after total RNA extraction from cells. D) Viability was monitored in 1C8-treated (or control treated; puromycin is a positive toxic molecule) cells by CellTiter-Glo® luminescent cell viability assay. Results are the mean+SEM of n=3 performed with 3 different differentiations of HepaRG. Statistics were done by two-tailed Mann-Whitney test, with following significativity: *P<0.05, **P<0.01, ***P<0.001, ****P<0.0001. nd=not determined
Cytotoxicity was measured in HepaRG cells treated with drugs as in experimental schemes presented if FIG. 1 with the “CellTiter-Glo® Luminescent Cell Viability Assay” from Promega, by following manufacturer's instructions.

[2] = tested on: HIV-1; details: cited from earlier work
[3] = tested on: HBV genotype C; assay: Anti-HBV properties in persistently infected dHepaRG cells, genotype C; format: cell-based, Hepatitis B virus; details: 10 microM three times
Method: FIG. 1. Experimental outlines. Treatment schemes: (a) Treatments in pre-infection: dHepaRG cells were treated for 24 h (at day −1) with 100 nM of PreS1 peptide (PreS1-pep) or 10 μM of 1C8, or untreated (NT). At day 0, cells were inoculated with HBV (MOI=250) or with HDV (MOI=25) in the presence of drugs for 24 h. For the tenofovir control (TDF at 10 μM), cells were treated at day 1 and 4 post-infection. Supernatant and cells were harvested at day 7 post-infection. (b) Treatments in post-infection: dHepaRG cells were inoculated with HBV (MOI=250) or with HDV (MOI=25). At days 4, 7 and 9 post infection, cells were treated with TDF 10 μM, lamivudine (3TC) at 10 μM, 1C8 10 μM or untreated (NT). […]
FIG. 6. […] B) HBs and HBe secreted antigens in supernatant were quantified by ELISA, whereas HBV DNA contained in virions was quantified by qPCR after viral nucleic acid extraction from supernatant. […] Statistics were done by two-tailed Mann-Whitney test, with following significativity: *P<0.05, **P<0.01, ***P<0.001, ****P<0.0001. nd=not determined. […]
From cell culture supernatants, secreted HBe and HBs antigens were quantified by ELISA, using a chemiluminescence immunoassay kit (Autobio, China) following manufacturer's instructions. […]
A HBV standard was used for quantification of extracellular viral DNA and RNA. […] CccDNA was normalized to β-Globin quantification. […]

Compound: Cn1ccc(=O)c(C(=O)Nc2nsc3ccc([N+](=O)[O-])cc23)c1 [1C8, 4-pyridinonebenzisothiazole carboxamide]
- concentration toxic for cells (viability, CellTiter-Glo) [1]: > 40 µM
- inhibition of HIV-1 replication [2]: strong inhibitor
- antiviral properties against genotype C virus [3]: retained antiviral properties against this strain, although with a slightly reduced efficacy
